Source: patent publication US11357769B2, “Drug combinations for reducing cell viability and/or cell proliferation” (Eisai R&D Management Co., Ltd., priority 2016, dated 2022)

Tested on: Hep3B xenograft
Experiment: Antitumor activity in Hep3B xenograft model of hepatocellular carcinoma
Format: in vivo, mice
Conditions: 17 days
Protocol: The human hepatocellular cancer cell line Hep3B was cultured in RPMI1640 medium containing 10% fetal bovine serum at 37° C. in a 5% CO2 atmosphere and kept in exponential growth phase. […] When the mean tumor volume (TV) reached approximately 170 mm^3 (10 days after implantation), 56 mice were selected based on their TVs, and were sorted into 7 treatment groups with 8 animals per group. […] Body weights were measured daily and tumor measurements were performed twice weekly.
[formula] where Day X is any day of measurement.
The anti-tumor effects of the treatment, Partial (PR) and complete regression (CR), stable (SD) and progressive (PD) disease were defined by the H3 Xenograft Model Response Criteria (Appendix 4). […] The relative body weight changes were analyzed by two way ANOVA followed by Dunnett's post hoc.

C=CC(=O)Nc1cc(N2CCN(CC)CC2)ccc1Nc1cc(N(C)C(=O)Nc2c(Cl)c(OC)cc(OC)c2Cl)ncn1 [Compound 1, N-(2-((6-(3-(2,6-dichloro-3,5-dimethoxyphenyl)-1-methylureido)pyrimidin-4-yl)amino)-5-(4-ethylpiperazin-1-yl)phenyl)acrylamide]
Tumor Growth Inhibition (TGI) (Compound 1 single agent 100 mg/kg PO): 16%
Tumor Growth Inhibition (TGI) (Compound 1 single agent 300 mg/kg PO, p<0.05 vs vehicle): 64%
